{"source": "patent US20200068887A1", "about": "“TREATMENT FOR REMOVING ECTOPARASITES FROM FISH” (priority 2016, published 2020)", "assay_type_in_all_cases": "in vivo", "key": {"Lepeophtheirus salmonis": {"test_system": "Lepeophtheirus salmonis", "experiment": "Relative efficacy study (optimisation of treatment concentration)", "conditions": "for Parasite clearance: n=2, ±SEM", "protocol": "120 salmon fish (Salmo salar) were divided across five flow-through treatment tanks and acclimated for 24 hours prior to parasite challenge.\nEgg strings removed from ovigerous female Lepeophtheirus salmonis were collected and cultured until infective copepodids were produced. The copepodids were then evenly distributed into five bottles containing sea water and stored at ˜10° C. overnight. In preparation for the challenge, water flows in the treatment tanks were stopped and light levels reduced. 650±20 copepodids (˜27 per host) were added to the static water and the tanks maintained in total darkness for 7 hours after which light levels were raised and the water flow resumed.\nFish were randomly divided into ten groups of ten fish and held in static ‘treatment buckets’ containing 30 L of water and high aeration as shown in Table 3.\nEight of the groups (3-10) were treated with the required concentrations of imidacloprid for 60 minutes: imidacloprid was dissolved in DMSO and added to ˜1L of tank water prior to addition to the treatment buckets. The remaining group and its replicate (1 & 2) were DMSO controls at 0.03%.\nExperimental animals were monitored closely for adverse reactions and the status of the parasite infection. Where possible the time at which all parasites were thought to have detached was recorded. As treatments were performed in static systems, temperature and dissolved oxygen were regularly monitored throughout the procedure and aeration adjusted as required.\nAfter the treatment period, the test animals were removed from the treatment solution and humanly euthanised. Each fish was weighed, measured, and its individual parasite burden assessed. The number of parasites in the treatment solution was also counted and qualitatively assessed for: sex and maturity, apparent signs of neonicotinoid poisoning, and/or potential recovery.\nLogistic regression was used to compare parasite clearance after treatment with each of the concentration. Logistic regression analyses were performed using the glm function in R v.2.13.0 and assumed a binomial or quasi-binomial error distribution (determined through the comparison of the null deviance with the degrees of freedom)."}, "salmon louse [1]": {"test_system": "salmon louse", "experiment": "Bath treatment of lice-infected Atlantic salmon, percent lice removed", "conditions": "12° C.", "protocol": "To determine the concentration- and time-dependence of imidacloprid treatment in vivo, Atlantic salmon (average of 320.9 g) were challenged with imidacloprid in seawater (32.5%0 salinity) at 12° C. The water level in the tank was lowered and aeration was employed during administration of the active. The salmon louse copepodid culture was counted and adjusted to obtain a target level of around 40 copepodids per fish in the challenge tank at each challenge time point.\nSalmon lice on the fish were counted using standard methods. Only lice on the fish's outer surface, not including gills and oral/buccal cavities, were investigated.\n(§1) Numbers of dissociated lice in tank water or attached to the tank walls were recorded. Lice in the tank water were collected and assessed for ability to attach by suction to a smooth plastic surface immediately after treatment and again after 30-60 minutes (to assess possible revival). Live and viable lice were also collected from the mock-treated control groups for reference and held in revival chambers for the same period of time to assess the system.\nThe test solutions of the active were prepared (added and homogenised with seawater) and administered to a treatment volume of 40 litres.\nThree sea lice-infected fish from the holding tank were randomly gathered and carefully steered into a barrel forming an inner compartment (diameter=34.5-40 cm; height=54 cm) that was submerged in the tank and in which the base has been replaced with a plastic mesh screen with 9 mm^2 square holes.\nThe fish were transferred to the inner compartment within 3 minutes of each test start. The inner compartment was suspended/submerged in the holding tank pending treatment. Treatments and mock treatments were implemented by draining the inner compartment with fish and transferring it to a barrel containing the test solution. Treatments/mock treatments were performed in static water with aeration/oxygenation. Aeration was adjusted to set the oxygen saturation to 70-100%.\nTo terminate the treatment, the inner compartment with treated fish was lifted to the surface and drained, then fish were transferred directly and without water to a second basin with a lethal overdose of anaesthetic and left until dead. All lice remaining on these fish and lice that fell off in the anaesthetic bath were recorded.\nExposure times with imidacloprid ranged from 3 to 60 minutes, and doses ranged from 20 ppm to 200 ppm.\nNegative control groups at 3- and 60 minutes were duplicated. Superscript numbers denote the total number of lice on the 3 fish in each test.\nBy way of comparison, fish infected with sea lice from the same sources were treated with azamethiphos at 0.1 mg/l and deltamethrin at 0.2 μ/l for 30 minutes, per the recommended dosage regimes. Treatments were carried out under similar conditions as those treated with imidacloprid. A mock-treatment control was also administered. Each treatment condition was administered in duplicate.\nSuperscript numbers denote the total number of lice on the 3 fish in each test."}, "salmon louse [2]": {"test_system": "salmon louse", "experiment": "Revival rates of sea lice after bath treatment", "protocol": "as §1\nRemaining lice in the treatment bath were strained through a plankton mesh (2 mm pore size) that was suspended in a water bath with clean seawater. The lice in this collector were transferred to a plastic beaker (1 litre) and then again into a revival tube (5 cm diameter; 10 cm length). Lice that are able to attach to the walls of the treatment tanks or beaker within 3 minutes of completion of each test were scored as viable."}, "Atlantic salmon": {"test_system": "Atlantic salmon", "experiment": "Fish behaviour/appearance and mortality during bath treatment trial", "conditions": "20 ppm to 200 ppm, exposure 3 to 60 minutes", "protocol": "Fish behaviour/appearance was assessed in vivo during each test. Any changes in behaviour and/or appearance including mortality were recorded."}}}
{"molecule": "O=[N+]([O-])NC1=NCCN1Cc1ccc(Cl)nc1", "note": "[imidacloprid]", "values": [{"measurement": "parasites remaining attached to their hosts at sampling", "setting": "Lepeophtheirus salmonis; 10 mg/l, 60 min", "value": 20, "unit": "%"}, {"measurement": "Parasite clearance", "setting": "Lepeophtheirus salmonis; 10 mg/l, 60 min", "value": "80±11", "unit": "%"}, {"measurement": "parasites remaining attached to their hosts at sampling", "setting": "Lepeophtheirus salmonis; 15 mg/l, 60 min", "value": 8, "unit": "%"}, {"measurement": "Parasite clearance", "setting": "Lepeophtheirus salmonis; 15 mg/l, 60 min", "value": "92±4", "unit": "%"}, {"measurement": "parasites remaining attached to their hosts at sampling", "setting": "Lepeophtheirus salmonis; 20 mg/l, 60 min", "value": 8, "unit": "%"}, {"measurement": "Parasite clearance", "setting": "Lepeophtheirus salmonis; 20 mg/l, 60 min", "value": "92±7", "unit": "%"}, {"measurement": "parasites remaining attached to their hosts at sampling", "setting": "Lepeophtheirus salmonis; 25 mg/l, 60 min", "value": 3, "unit": "%"}, {"measurement": "Parasite clearance", "setting": "Lepeophtheirus salmonis; 25 mg/l, 60 min", "value": "97±3", "unit": "%"}, {"measurement": "parasite infection removed", "setting": "Lepeophtheirus salmonis; all four dosages (10, 15, 20, 25 mg/l), 60 minute treatment", "value": "80-100%"}, {"measurement": "optimum concentration within the range tested", "setting": "Lepeophtheirus salmonis; range 10-25 mg/l, 60 min, no significant increase in efficacy above", "value": 15, "unit": "mg/L"}, {"measurement": "percentage lice removed from fish after treatment relative to total numbers of lice", "setting": "salmon louse [1]; 20 ppm, 30 minutes, total 36 lice on 3 fish", "value": "63.9^36%"}, {"measurement": "percentage lice removed from fish after treatment relative to total numbers of lice", "setting": "salmon louse [1]; 20 ppm, 60 minutes, total 27 lice on 3 fish", "value": "74.1^27%"}, {"measurement": "percentage lice removed from fish after treatment relative to total numbers of lice", "setting": "salmon louse [1]; 50 ppm, 30 minutes, total 23 lice on 3 fish", "value": "91.3^23%"}, {"measurement": "percentage lice removed from fish after treatment relative to total numbers of lice", "setting": "salmon louse [1]; 100 ppm, 3 minutes, total 43 lice on 3 fish", "value": "7.0^43%"}, {"measurement": "percentage lice removed from fish after treatment relative to total numbers of lice", "setting": "salmon louse [1]; 100 ppm, 15 minutes, total 38 lice on 3 fish", "value": "73.7^38%"}, {"measurement": "percentage lice removed from fish after treatment relative to total numbers of lice", "setting": "salmon louse [1]; 200 ppm, 5 minutes, total 34 lice on 3 fish", "value": "55.9^34%"}, {"measurement": "percentage lice removed from fish after treatment relative to total numbers of lice", "setting": "salmon louse [1]; 200 ppm, 15 minutes, total 47 lice on 3 fish", "value": "91.5^47%"}, {"measurement": "% active at 30-60 min. post-treatment, Attached lice collected from fish", "setting": "salmon louse [2]; 20 ppm 30 min, n lice 9", "value": 11.1, "unit": "%"}, {"measurement": "% active at 30-60 min. post-treatment, Detached lice collected from tank water", "setting": "salmon louse [2]; 20 ppm 30 min, n lice 23", "value": 4.3, "unit": "%"}, {"measurement": "% active at 30-60 min. post-treatment, Detached lice collected from tank water", "setting": "salmon louse [2]; 20 ppm 60 min, n lice 20", "value": 0.0, "unit": "%"}, {"measurement": "% active at 30-60 min. post-treatment, Detached lice collected from tank water", "setting": "salmon louse [2]; 50 ppm 30 min, n lice 31", "value": 0.0, "unit": "%"}, {"measurement": "% active at 30-60 min. post-treatment, Detached lice collected from tank water", "setting": "salmon louse [2]; 100 ppm 3 min, n lice 3", "value": 33.3, "unit": "%"}, {"measurement": "% active at 30-60 min. post-treatment, Detached lice collected from tank water", "setting": "salmon louse [2]; 100 ppm 15 min, n lice 28", "value": 0.0, "unit": "%"}, {"measurement": "% active at 30-60 min. post-treatment, Attached lice collected from fish", "setting": "salmon louse [2]; 200 ppm 5 min, n lice 13", "value": 0.0, "unit": "%"}, {"measurement": "% active at 30-60 min. post-treatment, Detached lice collected from tank water", "setting": "salmon louse [2]; 200 ppm 5 min, n lice 13", "value": 0.0, "unit": "%"}, {"measurement": "% active at 30-60 min. post-treatment, Detached lice collected from tank water", "setting": "salmon louse [2]; 200 ppm 15 min, n lice 43", "value": 0.0, "unit": "%"}, {"measurement": "fish mortality in the trial", "setting": "Atlantic salmon", "value": "No fish died in the trial"}]}
